From patent publication US20160030391A1, “METHODS AND COMPOSITIONS FOR IMPROVING COGNITIVE FUNCTION” (THE JOHNS HOPKINS UNIVERSITY, priority 2013, published 2016)
Entries after “also recorded” stand apart in the source; their conditions may differ.

What was measured:
[1] = tested on: reelin in Entorhinal Cortex (EC2); assay: reelin in situ hybridization in entorhinal cortex after chronic levetiracetam; assay type: in vivo, rat; conditions: levetiracetam 10 mg/kg/day, osmotic minipumps, four weeks (28 days), aged-impaired rats
Description: (§1) Under isoflurane anesthesia, memory-impaired aged rats were implanted subcutaneously in the intrascapular region with osmotic mini-pumps (ALZET, Durect Corporation, Cupertino, Calif.) with levetiracetam (10 mg/kg/day) or saline vehicle for four weeks prior to perfusion. Young rats, which served as controls, received either saline vehicle in mini-pumps or no implantation.
At the end of the 4-week treatment period, rats were anesthetized with isoflurane and perfused transcardiacally with 0.1 M phosphate buffer saline, followed by 4% paraformaldehyde in phosphate buffer. Brains were removed and post-fixed in paraformaldehyde overnight. The brains were then moved into 4% paraformaldehyde in phosphate buffer containing 16% sucrose. […]
Probe templates were synthesized as described in Haberman et al. (2008). […] The final probe was resuspended in RNase-free water and the specific activity was determined by scintillation counter.
In situ hybridization was carried out as described by Haberman et al., (2008). […] Slides were dried overnight, exposed to a phosphoimager screen, and quantified by using ImageQuant (GE Healthcare). Digital images were acquired of entorhinal cortical sections from the same levels for all animals and the subregion of interest was outlined and quantified. […]

[2] = tested on: somatostatin in DG hilus; assay: anti-SOM immunohistochemistry, hilar interneuron counts after chronic levetiracetam; assay type: in vivo, rat; conditions: levetiracetam 10 mg/kg/day, osmotic minipumps, four weeks, aged-impaired rats
Description: as §1
At the end of the 4-week treatment period, rats were anesthetized with isoflurane and perfused transcardiacally with 0.1 M phosphate buffer saline, followed by 4% paraformaldehyde in phosphate buffer. Brains were removed and post-fixed in paraformaldehyde overnight. […]
Tissue was labeled with anti-SOM antiserum (Santa Cruz Biotechnology; cat. no. SC7819-P) using an established immunoperoxidase protocol and tissue sections were processed concurrently to minimize inter-replication variability (Haberman et al., 2009). […] The secondary antibody was detected with avidin-biotin complex (ABC Elite; Vector Laboratories Inc., Burlingame, Calif.) and the avidin-biotin complex was visualized with nickel-enhanced diaminobenzadine (Vector Laboratories Inc., Burlingame, Calif.). […]
Interneuron quantification was performed using a Zeiss Axioplan 2 microscope equipped with a motorized stage. […] Neuron counts were analyzed as the total number of hilar interneurons per hippocampal section for each rat.

[3] = tested on: aMCI subjects; assay: Verbal Paired Associates Test - Delayed Recall; assay type: in vivo, human; conditions: levetiracetam 125 mg twice a day for two weeks
From the text: Breaks are provided to the subject as needed.

CC[C@@H](C(N)=O)N1CCCC1=O [levetiracetam, (2S)-2-(2-oxopyrrolidin-1-yl)butanamide] was tested, and the “levels of reelin in Entorhinal Cortex (EC2) (reelin mRNA expression)” value [1] was “significantly increased; also recorded: restores”, the “levels of somatostatin in DG hilus (SOM-immunoreactive hilar neurons)” value [2] was “restores” and the “performance in Verbal Paired Associates Test—Delayed Recall” value [3] was “fail to rescue performance”.
